Columns and labels:
Format in all cases: biochemical
[1] = target: T1, FXIIa (Homo sapiens, UniProt P00748); experiment: Determination of Factor XIIa inhibition (chromogenic substrate S-2302); conditions: human FXIIa alpha, Ki category
T1 construct: FXIIa alpha
T1 sequence (P00748 373-615 limits assumed): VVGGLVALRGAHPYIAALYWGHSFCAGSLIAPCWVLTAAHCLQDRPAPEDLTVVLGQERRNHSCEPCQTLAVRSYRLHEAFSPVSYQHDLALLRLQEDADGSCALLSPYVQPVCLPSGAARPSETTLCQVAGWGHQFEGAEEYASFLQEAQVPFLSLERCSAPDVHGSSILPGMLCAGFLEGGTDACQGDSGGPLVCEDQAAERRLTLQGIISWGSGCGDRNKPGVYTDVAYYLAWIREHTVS
T1 sequence (P00748 20-372 partner limits assumed): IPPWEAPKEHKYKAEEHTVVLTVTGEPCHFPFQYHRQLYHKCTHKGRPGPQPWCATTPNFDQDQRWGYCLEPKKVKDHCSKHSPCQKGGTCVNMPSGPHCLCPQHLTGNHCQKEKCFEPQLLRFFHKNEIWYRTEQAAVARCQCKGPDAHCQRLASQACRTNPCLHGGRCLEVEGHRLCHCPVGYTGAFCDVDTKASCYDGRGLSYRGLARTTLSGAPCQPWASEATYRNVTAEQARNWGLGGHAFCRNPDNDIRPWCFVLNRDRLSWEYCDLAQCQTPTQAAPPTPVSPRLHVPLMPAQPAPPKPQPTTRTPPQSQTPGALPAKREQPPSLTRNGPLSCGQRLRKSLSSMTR
Procedure, shortened: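 Compound preincubated with 10 nM FXIIa for 10 min at 37° C in 50 mM Tris, 137 mM NaCl, pH 7.4, 5% DMSO, top concentration 500 μM; S-2302 added at Km. pNA release followed at 405 nm for 3 h; IC50 from initial rates, converted to Ki via Ki = IC50/(1+[S]/Km).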

[2] = target: FXa (Homo sapiens, UniProt P00742); experiment: Determination of selectivity: FXa inhibition (chromogenic substrate S2765); conditions: fold selectivity for FXIIa over FXa (human); category
Procedure, shortened: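 FXa (5 nM) preincubated with increasing compound (top 500 μM) for 10 mins at 37° C in 50 mM Tris, 137 mM NaCl pH 7.4, 5% DMSO, then S2765 added at its KM. Absorbance at 405 nm followed kinetically for 3 hours; IC50 from initial rates, converted to Ki by Cheng-Prusoff.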

[3] = target: T2, thrombin (Homo sapiens, UniProt P00734); experiment: Determination of selectivity: thrombin inhibition (chromogenic substrate GPR); conditions: fold selectivity for FXIIa over thrombin (human); category
T2 construct: FXa (5 nM) and thrombin (5 nM)
Procedure, shortened: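 Thrombin (5 nM) preincubated with increasing compound concentrations (top 500 μM, 5% DMSO) 10 min at 37 °C in 50 mM Tris, 137 mM NaCl pH 7.4, then GPR chromogenic substrate at its KM. pNA release read kinetically at 405 nm for 3 h at 37 °C. IC50 from initial rates, converted to Ki via Cheng–Prusoff.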

Chain of FXa (P00742 235-488 limits assumed): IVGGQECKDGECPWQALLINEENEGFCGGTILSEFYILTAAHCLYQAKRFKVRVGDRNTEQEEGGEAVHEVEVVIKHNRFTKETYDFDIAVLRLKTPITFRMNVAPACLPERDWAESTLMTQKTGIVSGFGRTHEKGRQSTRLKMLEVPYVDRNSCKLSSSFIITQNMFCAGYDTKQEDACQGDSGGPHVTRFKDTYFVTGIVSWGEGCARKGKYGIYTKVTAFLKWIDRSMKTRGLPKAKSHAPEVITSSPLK
Chain of FXa (P00742 41-179 partner limits assumed): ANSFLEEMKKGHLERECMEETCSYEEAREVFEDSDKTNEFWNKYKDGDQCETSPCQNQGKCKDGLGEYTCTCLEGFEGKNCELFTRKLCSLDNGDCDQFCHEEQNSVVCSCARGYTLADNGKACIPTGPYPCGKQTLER

Ki [1]	FXa (human)/FXIIa alpha (human) [2]	Structure (SMILES)	Thrombin (human)/FXIIa alpha (human) [3]
200 to 800 nM	∘∘∘	Cn1nnc2cc(CNC(=O)[C@@H]3C/C(=C/C4=CCC5(CC4)CC5)CN3C(=O)[C@@H]3NCCC[C@@H]3C(=O)N3CCCC3)ccc21 [Example M05992, (S,Z)-N-((1-methyl-1H-benzo[d][1,2,3]triazol-5-yl)methyl)-1-((2R,3S)-3-(pyrrolidine-1-carbonyl)piperidine-2-carbonyl)-4-(spiro[2.5]oct-5-en-6-ylmethylene)pyrrolidine-2-carboxamide]	+++ (fold selectivity values greater than 100)
200 to 800 nM	∘∘∘	Cn1ncc2cc(CNC(=O)[C@@H]3C[C@@H](Cc4ccc(C5CC5)nn4)CN3C(=O)[C@@H]3NCCC[C@@H]3C(=O)N3CCCC3)ccc21 [Example M05997, (2S,4S)-4-[(6-cyclopropylpyridazin-3-yl)methyl]-N-[(1-methylindazol-5-yl)methyl]-1-[(2R,3S)-3-(pyrrolidine-1-carbonyl)piperidine-2-carbonyl]pyrrolidine-2-carboxamide]	+++ (fold selectivity values greater than 100)
200 to 800 nM	∘∘∘	Cc1nnc2cc(CNC(=O)[C@@H]3C[C@@H](Cc4ccc(C5CC5)cc4)CN3C(=O)[C@@H]3NCCC[C@@H]3C(=O)N3CCCC3)ccn12 [Example M06006, (2S,4R)-4-(4-cyclopropylbenzyl)-N-((3-methyl-[1,2,4]triazolo[4,3-a]pyridin-7-yl)methyl)-1-((2R,3S)-3-(pyrrolidine-1-carbonyl)piperidine-2-carbonyl)pyrrolidine-2-carboxamide]	+++ (fold selectivity values greater than 100)
200 to 800 nM	∘∘∘	Cn1ncc2cc(CNC(=O)[C@@H]3C[C@@H](Cc4ncc(C5CC5)o4)CN3C(=O)[C@@H]3NCCC[C@@H]3C(=O)N3CCCC3)ccc21 [Example M06009]	+++ (fold selectivity values greater than 100)
200 to 800 nM	∘∘∘	Cc1ccc(C[C@@H]2C[C@@H](C(=O)NCc3ccc4c(cnn4C)c3)N(C(=O)[C@@H]3NCCC[C@@H]3C(=O)N3CC[C@@H](N(C)C)C3)C2)cc1 [Example M06010, (2S,4R)-1-((2R,3S)-3-((R)-3-(dimethylamino)pyrrolidine-1-carbonyl)piperidine-2-carbonyl)-N-((1-methyl-1H-indazol-5-yl)methyl)-4-(4-methylbenzyl)pyrrolidine-2-carboxamide]	+++ (fold selectivity values greater than 100)
< 200 nM	∘∘∘	Cc1ccc(C[C@@H]2C[C@@H](C(=O)NCc3ccc4c(cnn4C)c3)N(C(=O)[C@@H]3NCCC[C@@H]3C(=O)N3CC[C@H](N(C)C)C3)C2)cc1 [Example M06013, (2S,4R)-1-((2R,3S)-3-((S)-3-(dimethylamino)pyrrolidine-1-carbonyl)piperidine-2-carbonyl)-N-((1-methyl-1H-indazol-5-yl)methyl)-4-(4-methylbenzyl)pyrrolidine-2-carboxamide]	+++ (fold selectivity values greater than 100)
200 to 800 nM	∘∘∘	Cn1ncc2cc(CNC(=O)[C@@H]3C[C@@H](Cc4ccc(OC(F)F)cc4)CN3C(=O)[C@@H]3NCCC[C@@H]3C(=O)N3CCCC3)ccc21 [Example M06021]	+++ (fold selectivity values greater than 100)
200 to 800 nM	∘∘∘	Cc1ccc(C[C@@H]2C[C@@H](C(=O)NCc3ccc4c(cnn4C)c3)N(C(=O)[C@@H]3NCCC[C@@H]3C(=O)N3CCCC3)C2)s1 [Example M06030, (2S,4S)-N-((1-methyl-1H-indazol-5-yl)methyl)-4-((5-methylthiophen-2-yl)methyl)-1-((2R,3S)-3-(pyrrolidine-1-carbonyl)piperidine-2-carbonyl)pyrrolidine-2-carboxamide]	++ (a fold selectivity value of 10 to 100)
< 200 nM	∘∘∘	Cc1ccc(C[C@@H]2C[C@@H](C(=O)NCc3ccc4c(cnn4C)c3)N(C(=O)[C@@H]3NCCC[C@@H]3C(=O)N(C)C3CCN(C)C3)C2)cc1 (stereo partly drawn) [Example M06033, (2R,3S)-N-methyl-2-((2S,4R)-2-(((1-methyl-1H-indazol-5-yl)methyl)carbmoyl)-4-(4-methylbenzyl)pyrrolidine-1-carbonyl)-N-(1-methylpyrrolidin-3-yl)piperidine-3-carboxamide]	+++ (fold selectivity values greater than 100)
< 200 nM	∘∘∘	Cc1ccc(C[C@@H]2C[C@@H](C(=O)NCc3ccc4c(cnn4C)c3)N(C(=O)[C@@H]3NCCC[C@@H]3C(=O)N(C)C3CCN(C)C3)C2)cc1 (stereo partly drawn) [Example M06034, (2R,3S)-N-methyl-2-((2S,4R)-2-(((1-methyl-1H-indazol-5-yl)methyl)carbamoyl)-4-(4-methylbenzyl)pyrrolidine-1-carbonyl)-N-(1-methylpyrrolidin-3-yl)piperidine-3-carboxamide]	+++ (fold selectivity values greater than 100)
< 200 nM	∘∘∘	Cc1ccc(C[C@@H]2C[C@@H](C(=O)NCc3ccc4c(cnn4C)c3)N(C(=O)[C@@H]3NCCC[C@@H]3C(=O)N(C)CCN3CCCC3)C2)cc1 [Example M06039, (2R,3S)-N-methyl-2-((2S,4R)-2-(((1-methyl-1H-indazol-5-yl)methyl)carbamoyl)-4-(4-methylbenzyl)pyrrolidine-1-carbonyl)-N-(2-(pyrrolidin-1-yl)ethyl)piperidine-3-carboxamide]	+++ (fold selectivity values greater than 100)
< 200 nM	∘∘∘	Cn1ncc2cc(CNC(=O)[C@@H]3C[C@@H](Cc4cc(C5CC5)on4)CN3C(=O)[C@@H]3NCCC[C@@H]3C(=O)N3CCC[C@@H]3C(F)(F)F)ccc21 [Example M06047, (2S,4S)-4-+(5-cyclopropylisoxazol-3-yl)methyl+-N-+(1-methylindazol-5-yl)methyl+-1-+(2R,3S)-3-+(2R)-2-(trifluoromethyl)pyrrolidine-1-carbonyl+piperidine-2-carbonyl+pyrrolidine-2-carboxamide]	+++ (fold selectivity values greater than 100)
< 200 nM	∘∘∘	Cc1ccc(C[C@@H]2C[C@@H](C(=O)NCc3ccc4c(cnn4C)c3)N(C(=O)[C@@H]3NCCC[C@@H]3C(=O)N(CCN(C)C)C3CC3)C2)cc1 [Example M06048, (2R,3S)-N-cyclopropyl-N-(2-(dimethylamino)ethyl)-2-((2S,4R)-2-(((1-methyl-1H-indazol-5-yl)methyl)carbamoyl)-4-(4-methylbenzyl)pyrrolidine-1-carbonyl)piperidine-3-carboxamide]	+++ (fold selectivity values greater than 100)
